The values that follow come from ChEMBL document CHEMBL1125906, “Three-dimensional structure-activity relationships and receptor mapping of N1-substituents of quinolone antibacterials” (1991).

The subject of this experiment is Escherichia coli. As to the kind of experiment: Biological activity against Escherichia coli N1HJ JC-2 relative to Norfloxacin. It counts as functional.

Regarding `CN1CCN(c2cc3c(cc2F)c(=O)c(C(=O)O)cn3-c2ccc(F)cc2F)CC1`, the activity relative to norfloxacin came to 4.

Take `CN1CCN(c2cc3c(cc2F)c(=O)c(C(=O)O)cn3-c2ccc(Br)cc2)CC1`: the activity relative to norfloxacin came to 0.0312.

The compound `O=C(O)c1c(=O)c2cc(F)c(N3CCNCC3)cc2n2ccsc12` displayed an activity relative to norfloxacin of 4.

On to `C=CCn1cc(C(=O)O)c(=O)c2cc(F)c(N3CCNCC3)cc21`, for which the activity relative to norfloxacin worked out at 0.25.

In turn, `O=C(O)c1cn(CCO)c2cc(N3CCNCC3)c(F)cc2c1=O` gave an activity relative to norfloxacin of 0.25.

The compound `Cc1ccc(-n2cc(C(=O)O)c(=O)c3cc(F)c(N4CCN(C)CC4)cc32)cc1` registered an activity relative to norfloxacin of 0.25.

Compound `Cn1cc(C(=O)O)c(=O)c2cc(F)c(N3CCNCC3)cc21` showed an activity relative to norfloxacin of 0.25.

`O=C(O)c1cn(CCF)c2cc(N3CCNCC3)c(F)cc2c1=O` registered an activity relative to norfloxacin of 4.

`CN1CCN(c2cc3c(cc2F)c(=O)c(C(=O)O)c2n3CCS2)CC1` yielded an activity relative to norfloxacin of 4.

Turning to `CN1CCN(c2cc3c(cc2F)c(=O)c(C(=O)O)cn3-c2ccc3c(c2)OCO3)CC1`, the activity relative to norfloxacin came to 0.25.

`CN1CCN(c2cc3c(cc2F)c(=O)c(C(=O)O)cn3-c2ccccc2)CC1` gave an activity relative to norfloxacin of 0.25.

`CN1CCN(c2cc3c(cc2F)c(=O)c(C(=O)O)cn3-c2ccccc2F)CC1`: the activity relative to norfloxacin stood at 0.25.

Take `CCCn1cc(C(=O)O)c(=O)c2cc(F)c(N3CCNCC3)cc21`: the activity relative to norfloxacin was found to be 0.25.

As for `CN1CCN(c2cc3c(cc2F)c(=O)c(C(=O)O)cn3-c2cccc(F)c2)CC1`, the activity relative to norfloxacin worked out at 0.0312.

`O=C(O)c1cn(Cc2ccccc2)c2cc(N3CCNCC3)c(F)cc2c1=O` returned an activity relative to norfloxacin of 0.25.

With `C=Cn1cc(C(=O)O)c(=O)c2cc(F)c(N3CCNCC3)cc21`, the activity relative to norfloxacin was 4.

In the case of `Cc1csc2c(C(=O)O)c(=O)c3cc(F)c(N4CCNCC4)cc3n12`, the activity relative to norfloxacin is 4.

`CN1CCN(c2cc3c(cc2F)c(=O)c(C(=O)O)cn3-c2ccc(Cl)cc2)CC1` showed an activity relative to norfloxacin of 0.25.

In the case of `COc1ccc(-n2cc(C(=O)O)c(=O)c3cc(F)c(N4CCN(C)CC4)cc32)cc1`, the activity relative to norfloxacin came out at 0.004.

`Cc1ccccc1-n1cc(C(=O)O)c(=O)c2cc(F)c(N3CCN(C)CC3)cc21` returned an activity relative to norfloxacin of 0.25.

For `CN(C)CCn1cc(C(=O)O)c(=O)c2cc(F)c(N3CCNCC3)cc21`, the activity relative to norfloxacin came to 0.0312.

The compound `CN1CCN(c2cc3c(cc2F)c(=O)c(C(=O)O)cn3-c2ccc(O)cc2)CC1` returned an activity relative to norfloxacin of 4.

Compound `Cc1cccc(C)c1-n1cc(C(=O)O)c(=O)c2cc(F)c(N3CCN(C)CC3)cc21` registered an activity relative to norfloxacin below 0.004.

`CNn1cc(C(=O)O)c(=O)c2cc(F)c(N3CCN(C)CC3)cc21` [AMIFLOXACIN] registered an activity relative to norfloxacin of 4.

For the compound `O=C(O)c1cn(C2CC2)c2cc(N3CCNCC3)c(F)cc2c1=O` [CIPROFLOXACIN], the activity relative to norfloxacin worked out at 4.

`C[C@@H]1COc2c(N3CCN(C)CC3)c(F)cc3c(=O)c(C(=O)O)cn1c23` [DEXTROFLOXACINE] had an activity relative to norfloxacin of 0.25.

`CN1CCN(c2cc3c(cc2F)c(=O)c(C(=O)O)cn3-c2ccc(F)cc2)CC1` [DIFLOXACIN] displayed an activity relative to norfloxacin of 4.

`C[C@H]1COc2c(N3CCN(C)CC3)c(F)cc3c(=O)c(C(=O)O)cn1c23.C[C@H]1COc2c(N3CCN(C)CC3)c(F)cc3c(=O)c(C(=O)O)cn1c23.O` [LEVOFLOXACIN] displayed an activity relative to norfloxacin of 4.

`CCn1cc(C(=O)O)c(=O)c2cc(F)c(N3CCNCC3)cc21` [NORFLOXACIN] displayed an activity relative to norfloxacin of 4.
